Source: ChEMBL document CHEMBL1157733, “Isolation, structure, and bioactivities of abiesadines A-Y, 25 new diterpenes from Abies georgei Orr” (Bioorg Med Chem, 2010)
≈ marks a conversion by molar mass, not a printed value.

What was measured:
[1] = Antiproliferative activity against human QGY7703 cells; format: functional, cell-based; details: QGY-7703
RAW264.7 = assay: Antiinflammatory activity in mouse RAW264.7 cells assessed as inhibition of LPS-induced NO release; format: functional, cell-based
[2] = Inhibition of TNF-alpha-induced NF-kappaB activity in human pNF-kappaB-luc-293 cells; format: cell-based; details: HEK293
LoVo = assay: Antiproliferative activity against human LoVo cells; format: functional, cell-based

Row | SMILES | IC50 [1] | IC50 (RAW264.7) | IC50 [2] | IC50 (LoVo)
1 | CC(C)(O)c1ccc2c(c1)[C@H](O)C[C@H]1[C@](C)(C(=O)O)CCC[C@]21C | > 25 mg/L | > 100 mg/L | > 100 mg/L | > 25 mg/L
2 | C=C[C@@](C)(O)CC[C@@H]1[C@@]2(C)CCCC(C)(C)[C@@H]2CC[C@@]1(C)O | > 25 mg/L |  |  | 13 mg/L (≈ 42.1 µM)
3 | CC(C)c1cc2c(cc1O)[C@@]1(C)CCC[C@@](C)(C(=O)O)[C@@H]1CC2 | > 25 mg/L | 63 mg/L (≈ 199 µM) | > 100 mg/L | > 25 mg/L
4 | C/C(=C\CO)CCC1[C@](C)(O)CC[C@H]2C(C)(C)CCC[C@]12C (stereo partly drawn) | > 25 mg/L | > 100 mg/L | > 100 mg/L | > 25 mg/L
5 | C=C[C@@](C)(O)[C@H]1CC2[C@@]3(C)CCCC(C)(C)C3CC[C@@]2(C)O1 (stereo partly drawn) | 15.7 mg/L (≈ 51.2 µM) | 21.6 mg/L (≈ 70.5 µM) | 8.7 mg/L (≈ 28.4 µM) | 23.1 mg/L (≈ 75.4 µM)
6 | CC(C)[C@]12C=C3CC[C@H]4[C@](C)(C(=O)O)CCC[C@]4(C)[C@@]3(CC1)OO2 | > 25 mg/L | > 100 mg/L | > 100 mg/L | > 25 mg/L
7 | CC(C)C1=CC2=CC[C@H]3[C@](C)(COC(=O)CCC(=O)O)CCC[C@]3(C)[C@H]2CC1 | > 25 mg/L | > 100 mg/L | > 100 mg/L | > 25 mg/L
8 | CC(C)(O)C1=CC2=CC[C@@H]3[C@](C)(CCC[C@@]3(C)C(=O)O)[C@H]2CC1=O | > 25 mg/L | > 100 mg/L | > 100 mg/L | > 25 mg/L
9 | CC(C)c1ccc2c(c1)C(=O)C[C@H]1[C@](C)(C(=O)O)CCC[C@]21C | 10.2 mg/L (≈ 32.4 µM) | > 100 mg/L | > 100 mg/L | > 25 mg/L
10 | CC(C)(O)c1ccc2c(c1)C(=O)C[C@H]1[C@](C)(C(=O)O)CCC[C@]21C | > 25 mg/L | 44 mg/L (≈ 133 µM) | > 100 mg/L | > 25 mg/L
11 | CC(C)c1ccc2c(c1)[C@@H](O)C[C@H]1[C@](C)(CO)CCC[C@]21C | > 25 mg/L | > 100 mg/L | > 100 mg/L | > 25 mg/L
12 | CC(C)(O)c1ccc2c(c1)CC[C@H]1[C@](C)(C(=O)O)CCC[C@]21C | > 25 mg/L | 76.4 mg/L (≈ 241 µM) | > 100 mg/L | > 25 mg/L
13 | CC(C)c1ccc2c(c1)C(=O)C[C@H]1[C@](C)(CO)CCC[C@]21C | > 25 mg/L | > 100 mg/L | > 100 mg/L | > 25 mg/L
14 | CC(C)c1ccc2c(c1)CC[C@H]1[C@](C)(COC(=O)CCC(=O)O)CCC[C@]21C | > 25 mg/L | > 100 mg/L | > 100 mg/L | > 25 mg/L
15 | CC(C)c1ccc2c(c1)[C@H](O)C[C@H]1[C@](C)(CO)CCC[C@]21C | > 25 mg/L | > 100 mg/L | > 100 mg/L | 9.2 mg/L (≈ 30.4 µM)
16 | CC(C)(O)c1ccc2c(c1)CC[C@H]1[C@](C)(CO)CCC[C@]21C | > 25 mg/L | > 100 mg/L | > 100 mg/L | > 25 mg/L
17 | CC(C)[C@@]12C=C3CC[C@H]4[C@](C)(C(=O)O)CCC[C@]4(C)[C@]3(CC1)OO2 | > 25 mg/L | > 100 mg/L | > 100 mg/L | > 25 mg/L
18 | C=C/C(C)=C\CC1[C@](C)(O)CC[C@H]2C(C)(C)CCC[C@]12C (stereo partly drawn) | 25 mg/L (≈ 86.1 µM) | > 100 mg/L | > 100 mg/L | 20.3 mg/L (≈ 69.9 µM)
19 | CC(C)c1ccc2c(c1)[C@H](O)C[C@H]1[C@](C)(C(=O)O)CCC[C@]21C | > 25 mg/L | > 100 mg/L | > 100 mg/L | > 25 mg/L
20 | CC(C)(O)c1ccc2c(c1)[C@@H](O)C[C@H]1[C@](C)(C(=O)O)CCC[C@]21C | > 25 mg/L | > 100 mg/L | > 100 mg/L | > 25 mg/L

Row | SMILES | IC50 [1] | IC50 (RAW264.7) | IC50 [2] | IC50 (LoVo)
21 | CC(C)c1ccc2c(c1)[C@@H](O)C[C@H]1[C@](C)(C(=O)O)CCC[C@]21C | > 25 mg/L | > 100 mg/L | > 100 mg/L | > 25 mg/L
22 | CC(C)/C(C=O)=C\C[C@H]1C(=O)CC[C@@H]2[C@]1(C)CCC[C@@]2(C)C(=O)O [ABIESADINE A] | > 25 mg/L | > 100 mg/L | > 100 mg/L | > 25 mg/L
23 | CC(C)c1ccc(O)c(CC[C@@H]2[C@@](C)(O)CCC[C@@]2(C)C(=O)O)c1 [ABIESADINE B] | > 25 mg/L | > 100 mg/L | > 100 mg/L | > 25 mg/L
24 | CC(C)[C@]12O[C@H]1CC1[C@@]3(C)CCC[C@@](C)(C(=O)O)[C@@H]3CC[C@@]1(O)[C@H]2O (stereo partly drawn) [ABIESADINE C] | > 25 mg/L | > 100 mg/L | > 100 mg/L | > 25 mg/L
25 | CC(C)[C@]12CC[C@@]3(O1)[C@@]1(C)CCC[C@@](C)(C(=O)O)[C@@H]1CC[C@]3(O)[C@H]2O [ABIESADINE D] | > 25 mg/L | > 100 mg/L | > 100 mg/L | > 25 mg/L
26 | CC(C)C1=CC[C@H]2C(=C1)C(=O)C[C@@H]1[C@]2(C)CCC[C@@]1(C)C(=O)O [ABIESADINE E] | > 25 mg/L | > 100 mg/L | > 100 mg/L | > 25 mg/L
27 | CC(C)c1ccc2c(c1)[C@H](O)C[C@H]1[C@](C)(COC(=O)CCC(=O)O)CCC[C@]21C [ABIESADINE F] | > 25 mg/L | > 100 mg/L | > 100 mg/L | > 25 mg/L
28 | CO[C@@H]1C[C@H]2[C@](C)(COC(=O)CCC(=O)O)CCC[C@]2(C)c2ccc(C(C)C)cc21 [ABIESADINE G] | > 25 mg/L | > 100 mg/L | > 100 mg/L | > 25 mg/L
29 | COC(=O)CCC(=O)OC[C@]1(C)CCC[C@]2(C)c3ccc(C(C)C)cc3[C@H](O)C[C@@H]12 [ABIESADINE H] | > 25 mg/L | 83.4 mg/L (≈ 200 µM) | > 100 mg/L | > 25 mg/L
30 | CC(C)(O)c1ccc2c(c1)CC[C@H]1[C@](C)(COC(=O)CCC(=O)O)CCC[C@]21C [ABIESADINE I] | > 25 mg/L | > 100 mg/L | > 100 mg/L | > 25 mg/L
31 | COC(C)(C)c1ccc2c(c1)CC[C@H]1[C@](C)(COC(=O)CCC(=O)O)CCC[C@]21C [ABIESADINE J] | > 25 mg/L | > 100 mg/L | > 100 mg/L | > 25 mg/L
32 | COC(=O)CCC(=O)OC[C@]1(C)CCC[C@]2(C)c3ccc(C(C)(C)O)cc3CC[C@@H]12 [ABIESADINE K] | > 25 mg/L | 52.1 mg/L (≈ 125 µM) | > 100 mg/L | > 25 mg/L
33 | CC(C)(O)c1ccc2c(c1)[C@H](O)C[C@H]1[C@](C)(COC(=O)CCC(=O)O)CCC[C@]21C [ABIESADINE L] | > 25 mg/L | > 100 mg/L | > 100 mg/L | > 25 mg/L
34 | COC(C)(C)c1ccc2c(c1)[C@H](O)C[C@H]1[C@](C)(COC(=O)CCC(=O)O)CCC[C@]21C [ABIESADINE M] | > 25 mg/L | > 100 mg/L | > 100 mg/L | > 25 mg/L
35 | COC(C)(C)c1ccc2c(c1)CC[C@H]1[C@](C)(C(=O)O)CCC[C@]21C [ABIESADINE N] | > 25 mg/L | > 100 mg/L | > 100 mg/L | > 25 mg/L
36 | COC(C)(C)c1ccc2c(c1)[C@H](O)C[C@H]1[C@](C)(C(=O)O)CCC[C@]21C [ABIESADINE O] | > 25 mg/L | > 100 mg/L | > 100 mg/L | > 25 mg/L
37 | CCOC(C)(C)c1ccc2c(c1)CC[C@H]1[C@](C)(C(=O)O)CCC[C@]21C [ABIESADINE P] | > 25 mg/L | 94.1 mg/L (≈ 273 µM) | > 100 mg/L | > 25 mg/L
38 | CC(C)c1ccc2c(c1)C(=O)C[C@H]1[C@](C)(COC(=O)CCC(=O)O)CCC[C@]21C [ABIESADINE Q] | > 25 mg/L | > 100 mg/L | > 100 mg/L | > 25 mg/L
39 | COc1cccc2c1C(=O)c1c(O)c3c(c(O)c1C2=O)C[C@@](O)(C(=O)CO)C[C@@H]3O[C@H]1C[C@H](N)[C@H](O)[C@H](C)O1 [DOXORUBICIN] | 0.42 mg/L (≈ 0.773 µM) |  |  | 0.55 mg/L (≈ 1.01 µM)
40 | N=C(N)NN [PIMAGEDINE] |  | 3.3 mg/L (≈ 44.5 µM) |  | 
